IC50 data for 20 compounds are collected here from patent US12240862B2, “Inhibitors of peptidylarginine deiminases” (Gilead Sciences, Inc., priority 2020, dated 2025).

T1 sequence (Q9UM07 2-663): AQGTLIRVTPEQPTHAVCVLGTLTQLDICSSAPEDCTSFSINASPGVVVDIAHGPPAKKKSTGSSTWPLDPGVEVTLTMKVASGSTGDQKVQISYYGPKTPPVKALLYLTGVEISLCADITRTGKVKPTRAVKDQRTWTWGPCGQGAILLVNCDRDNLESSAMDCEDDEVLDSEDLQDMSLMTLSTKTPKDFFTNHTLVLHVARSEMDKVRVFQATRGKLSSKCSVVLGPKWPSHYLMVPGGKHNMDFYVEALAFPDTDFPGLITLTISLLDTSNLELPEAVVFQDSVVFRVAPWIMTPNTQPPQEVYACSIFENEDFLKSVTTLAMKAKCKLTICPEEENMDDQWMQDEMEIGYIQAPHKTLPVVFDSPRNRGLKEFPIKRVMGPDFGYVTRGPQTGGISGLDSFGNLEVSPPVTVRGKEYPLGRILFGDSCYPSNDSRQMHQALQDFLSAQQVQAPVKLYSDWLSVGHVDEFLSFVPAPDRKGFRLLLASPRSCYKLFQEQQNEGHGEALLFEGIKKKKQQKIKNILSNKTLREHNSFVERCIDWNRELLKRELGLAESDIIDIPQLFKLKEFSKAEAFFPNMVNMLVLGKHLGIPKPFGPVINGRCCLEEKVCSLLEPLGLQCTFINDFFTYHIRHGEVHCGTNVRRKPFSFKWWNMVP

The assay concerns the target T1, human PAD4 (Homo sapiens, UniProt Q9UM07).
T1 construct: human PAD4 (NM_012387), A2P663, was PCR amplified; His-SUMO (N, cleaved yes); made in house; host or cells: E. coli BL21(DE3)
The experiment in a line: In vitro PAD4 BAEE biochemical assay. Conditions: human PAD4, BAEE substrate; 5 nM PAD4, 2 mM calcium chloride, 3 mM BAEE; geometric mean of multiple experiments. The essentials: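 Ammonia release from BAEE deimination monitored by o-phthalaldehyde amine coupling (1 h, 25 °C) after EDTA stop. Final conditions: 5 nM tag-free recombinant human PAD4 (E. coli), 2 mM CaCl2, 3 mM BAEE, pH 7.6 MOPS with DTT; 30 min compound preincubation, then 2 h reaction at 25 °C.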
For `COc1cc(C(=O)N2CCC[C@@H](N)C2)cc2nc(-c3cc4ccc(C(NC(C)=O)C5CC5)nc4n3CC3CC3)c(C)n12` (stereo partly drawn) [Example 194, N-((2-(7-((R)-3-aminopiperidine-1-carbonyl)-5-methoxy-3-methylimidazo[1,2-a]pyridin-2-yl)-1-(cyclopropylmethyl)-1H-pyrrolo[2,3-b]pyridin-6-yl)(cyclopropyl)methyl)acetamide], the IC50 stood at 1090 nM.

On to `CCc1ccc2cc(-c3nc4cc(C(=O)N5[C@H]6CC[C@@H]5[C@H](N)C6)cc(OC)n4c3C)n(Cc3ccncc3)c2n1` [Example 507, [(1~{R},2~{R},4~{S})-2-amino-7-azabicyclo [2.2.1]heptan-7-yl]-[2-[6-ethyl-1-(pyridin-4-ylmethyl)pyrrolo[2,3-b]pyridin-2-yl]-5-methoxy-3-methylimidazo[1,2-a]pyridin-7-yl]methanone], for which the IC50 is 152 nM.

For `CCc1ccc2cc(-c3nc4cc(C(=O)N5[C@H]6CC[C@@H]5[C@H](N)C6)cc(OC)n4c3C)n(CCCO)c2n1` [Example 499, [(1~{R},2~{R},4~{S})-2-amino-7-azabicyclo [2.2.1]heptan-7-yl]-[2-[6-ethyl-1-(3-hydroxypropyl)pyrrolo[2,3-b]pyridin-2-yl]-5-methoxy-3-methylimidazo[1,2-a]pyridin-7-yl]methanone], the IC50 was 481 nM.

`COc1cc(C(=O)N2[C@H]3CC[C@@H]2[C@H](N)C3)cc2nc(-c3cc4ccc([C@@H](C)NC(=O)N5CC6C(C5)C6(F)F)nc4n3CC3CC3)c(C)n12` (some centres unmarked) [Example 209, ~{N}-[(1~{R})-1-[2-[7-[(1~{R},2~{R},4~{S})-2-amino-7-azabicyclo[2.2.1]heptane-7-carbonyl]-5-methoxy-3-methylimidazo [1,2-a]pyridin-2-yl]-1-(cyclopropylmethyl)pyrrolo [2,3-b]pyridin-6-yl]ethyl]-6,6-difluoro-3-azabicyclo[3.1.0]hexane-3-carboxamide]: the IC50 was 37.8 nM.

Consider `COc1cc(C(=O)N2CCC[C@@H](N)C2)cc2nc(-c3cc4ccc(N(C(F)F)S(=O)(=O)C5COC5)nc4n3CC3CC3)c(C)n12` [Example 478, ~{N}-[2-[7-[(3~{R})-3-aminopiperidine-1-carbonyl]-5-methoxy-3-methylimidazo[1,2-a]pyridin-2-yl]-1-(cyclopropylmethyl)pyrrolo [2,3-b]pyridin-6-yl]-~{N}-(difluoromethyl)oxetane-3-sulfonamide], for which the IC50 was determined as 236 nM.

In the case of `COc1cc(C(=O)N2[C@H]3CC[C@@H]2[C@H](N)C3)cc2nc(-c3cc4ccc([C@@H](C)NC(=O)c5ccc(C)nc5)nc4n3CC3CC3)c(C)n12` [Example 49, ~{N}-[(1~{R})-1-[2-[7-[(1~{R},2~{R},4~{S})-2-amino-7-azabicyclo[2.2.1]heptane-7-carbonyl]-5-methoxy-3-methylimidazo [1,2-a]pyridin-2-yl]-1-(cyclopropylmethyl)pyrrolo[2,3-b]pyridin-6-yl]ethyl]-6-methylpyridine-3-carboxamide], the IC50 came to 22.2 nM.

As to `CNC(=O)CC(C)(C)c1ccc2cc(-c3nc4cc(C(=O)N5[C@H]6CC[C@@H]5[C@H](N)C6)cc(OC)n4c3C)n(CC3CC3)c2n1` [Example 539, 3-[2-[7-[(1~{R},2~{R}, 4~{S})-2-amino-7-azabicyclo[2.2.1]heptane-7-carbonyl]-5-methoxy-3-methylimidazo[1,2-a]pyridin-2-yl]-1-(cyclopropylmethyl)pyrrolo[2,3-b]pyridin-6-yl]-~{N},3-dimethylbutanamide], the IC50 was found to be 58.6 nM.

For the compound `CCc1ccc2cc(-c3nc4cc(C(=O)N5[C@H]6CC[C@@H]5[C@H](N)C6)cc(OC)n4c3C)n(CC3CCCC3)c2n1` [Example 509, [(1~{R},2~{R},4~{S})-2-amino-7-azabicyclo [2.2.1]heptan-7-yl]-[2-[1-(cyclopentylmethyl)-6-ethylpyrrolo[2,3-b]pyridin-2-yl]-5-methoxy-3-methylimidazo[1,2-a]pyridin-7-yl]methanone], the IC50 stood at 655 nM.

For the compound `CCc1ccc2cc(-c3nc4cc(C(=O)N5CCC6CCNC6C5)cc(OC)n4c3C)n(CC3CC3)c2n1` (centres unmarked) [Example 583, 1,2,3,3~{a},4,5,7,7~{a}-octahydropyrrolo[2,3-c] pyridin-6-yl-[2-[1-(cyclopropylmethyl)-6-ethylpyrrolo[2,3-b]pyridin-2-yl]-5-methoxy-3-methylimidazo[1,2-a]pyridin-7-yl]methanone], the IC50 was 535 nM.

On to `COc1cc(C(=O)N2[C@H]3CC[C@@H]2[C@H](N)C3)cc2nc(-c3cc4ccc(C5CCCCN5C(C)=O)nc4n3CC3CC3)c(C)n12` (some centres unmarked) [Example 515, 1-[2-[2-[7-[(1~{R},2~{R}, 4~{S})-2-amino-7-azabicyclo[2.2.1]heptane-7-carbonyl]-5-methoxy-3-methylimidazo[1,2-a]pyridin-2-yl]-1-(cyclopropylmethyl)pyrrolo[2,3-b]pyridin-6-yl]piperidin-1-yl] ethenone], for which the IC50 turned out to be 125 nM.

Regarding `COc1ccccc1C(=O)N[C@H](C)c1ccc2cc(-c3nc4cc(C(=O)N5[C@H]6CC[C@@H]5[C@H](N)C6)cc(OC)n4c3C)n(CC3CC3)c2n1` [Example 17], the IC50 came out at 348 nM.

For `[2H]C([2H])([2H])N(c1ccc2cc(-c3nc4cc(C(=O)N5C[C@H]6CC[C@@H]5[C@@H]6N)cc(OC)n4c3C)n(CC)c2n1)S(C)(=O)=O` [Example 366, N-[2-[7-[(1R,4R,7R)-7-amino-2-azabicyclo[2.2.1]heptane-2-carbonyl]-5-methoxy-3-methyl-imidazo[1,2-a]pyridin-2-yl]-1-ethyl-pyrrolo [2,3-b]pyridin-6-yl]-N-(trideuteriomethyl) methanesulfonamide], the IC50 was determined as 499 nM.

With `COc1cc(C(=O)N2[C@H]3CC[C@@H]2[C@H](N)C3)cc2nc(-c3cc4ccc([C@@H](C)NC(=O)CS(C)(=O)=O)nc4n3CC3CC3)c(C)n12` [Example 154, ~{N}-[(1~{R})-1-[2-[7-[(1~{R},2~{R},4~{S})-2-amino-7-azabicyclo[2.2.1]heptane-7-carbonyl]-5-methoxy-3-methylimidazo [1,2-a]pyridin-2-yl]-1-(cyclopropylmethyl)pyrrolo[2,3-b]pyridin-6-yl]ethyl]-2-methylsulfonylacetamide], the IC50 turned out to be 53.4 nM.

Consider `COc1cc(C(=O)N2[C@H]3CC[C@@H]2[C@H](N)C3)cc2nc(-c3cc4ccc(N[C@@H](C)C(F)(F)F)nc4n3CC3CC3)c(C)n12` [Example 448, [(1~{R},2~{R},4~{S})-2-amino-7-azabicyclo [2.2.1]heptan-7-yl]-[2-[1-(cyclopropylmethyl)-6-[[(2~{S})-1,1,1-trifluoropropan-2-yl]amino]pyrrolo[2,3-b]pyridin-2-yl]-5-methoxy-3-methylimidazo[1,2-a]pyridin-7-yl]methanone], for which the IC50 was found to be 6710 nM.

`COc1cc(C(=O)N[C@H]2CNC[C@@H](F)C2)cc2nc(-c3cc4ccc(N(C(F)F)S(C)(=O)=O)nc4n3CC3CC3)c(C)n12` [Example 307, 2-[1-(cyclopropylmethyl)-6-[difluoromethyl (methylsulfonyl)amino]pyrrolo[2,3-b]pyridin-2-yl]-~{N}-[(3~{R},5~{S})-5-fluoropiperidin-3-yl]-5-methoxy-3-methylimidazo [1,2-a]pyridine-7-carboxamide]: the IC50 worked out at 25600 nM.

With `COc1cc(C(=O)N2C[C@H]3CC[C@@H]2[C@H](N)C3)cc2nc(-c3cc4ccc(N(C(F)F)S(C)(=O)=O)nc4n3CC3CC3)c(C)n12` [Example 376, ~{N}-[2-[7-[(1~{R},4~{S}, 6~{R})-6-amino-2-azabicyclo[2.2.2]octane-2-carbonyl]-5-methoxy-3-methylimidazo[1,2-a]pyridin-2-yl]-1-(cyclopropylmethyl)pyrrolo [2,3-b]pyridin-6-yl]-~{N}-(difluoromethyl) methanesulfonamide], the IC50 was determined as 404 nM.

On to `COc1nn(C)cc1C(=O)N[C@H](C)c1ccc2cc(-c3nc4cc(C(=O)N5[C@H]6CC[C@@H]5[C@H](N)C6)cc(OC)n4c3C)n(CC3CC3)c2n1` [Example 26, ~{N}-[(1~{R})-1-[2-[7-[(1~{R},2~{R},4~{S})-2-amino-7-azabicyclo [2.2.1]heptane-7-carbonyl]-5-methoxy-3-methylimidazo [1,2-a]pyridin-2-yl]-1-(cyclopropylmethyl)pyrrolo[2,3-b]pyridin-6-yl]ethyl]-3-methoxy-1-methylpyrazole-4-carboxamide], for which the IC50 amounted to 151 nM.

Turning to `COc1cc(C(=O)N2CCC[C@@H](N)[C@H]2C)cc2nc(-c3cc4ccc(N(C(F)F)S(C)(=O)=O)nc4n3CC3CC3)c(C)n12` [Example 411, ~{N}-[2-[7-[(2~{R},3~{R})-3-amino-2-methylpiperidine-1-carbonyl]-5-methoxy-3-methylimidazo[1,2-a]pyridin-2-yl]-1-(cyclopropylmethyl)pyrrolo [2,3-b]pyridin-6-yl]-~{N}-(difluoromethyl) methanesulfonamide], the IC50 is 143 nM.

For the compound `COc1cc(C(=O)N2[C@H]3CC[C@@H]2[C@H](N)C3)cc2nc(-c3cc4ccc(N5[C@@H]6CC[C@@H](C6)CS5(=O)=O)nc4n3CC3CC3)c(C)n12` [Example 473, [(1~{R},2~{R},4~{S})-2-amino-7-azabicyclo [2.2.1]heptan-7-yl]-[2-[1-(cyclopropylmethyl)-6-[(1~ {R},5~{S})-3,3-dioxo-3$l^6-thia-2-azabicyclo[3.2.1]octan-2-yl]pyrrolo [2,3-b]pyridin-2-yl]-5-methoxy-3-methylimidazo [1,2-a]pyridin-7-yl] methanone], the IC50 came out at 117 nM.

For the compound `COc1cc(C(=O)N2[C@H]3CC[C@@H]2[C@H](N)C3)cc2nc(-c3cc4ccc([C@@H](C)NC(=O)NCc5ccccc5)nc4n3CC3CC3)c(C)n12` [Example 233, 1-[(1~{R})-1-[2-[7-[(1~{R},2~{R},4~{S})-2-amino-7-azabicyclo[2.2.1]heptane-7-carbonyl]-5-methoxy-3-methylimidazo [1,2-a]pyridin-2-yl]-1-(cyclopropylmethyl)pyrrolo [2,3-b]pyridin-6-yl]ethyl]-3-benzylurea], the IC50 is 103 nM.
